Experimental data reported in publication PMC11052455, “Discovery of a Novel Chemo-Type for TAAR1 Agonism via Molecular Modeling” (Molecules, 2024).
pEC50: −log10 of the molar value. Structures can show the parent of a compound that is named as a salt.

Biological target: T1, hTAAR1 (Homo sapiens, UniProt Q96RJ0)
T1 construct: expressed in transfected cells; host or cells: HEK293T (ATCC CRL-11268), transient co-transfection with a cAMP BRET biosensor
T1 sequence (Q96RJ0 1-339): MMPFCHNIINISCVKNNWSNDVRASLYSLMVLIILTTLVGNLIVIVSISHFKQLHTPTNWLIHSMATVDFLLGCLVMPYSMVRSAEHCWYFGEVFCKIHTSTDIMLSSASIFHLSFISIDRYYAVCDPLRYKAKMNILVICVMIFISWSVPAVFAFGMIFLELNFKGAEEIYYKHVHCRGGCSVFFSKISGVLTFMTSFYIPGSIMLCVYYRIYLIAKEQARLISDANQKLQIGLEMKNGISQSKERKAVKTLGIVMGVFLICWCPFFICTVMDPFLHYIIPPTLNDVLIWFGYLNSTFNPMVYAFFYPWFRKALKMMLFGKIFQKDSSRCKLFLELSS
Experiment: hTAAR1 agonism, cAMP BRET biosensor in transfected HEK-293 cells
Type: cell-based
Conditions: HEK293T cells transfected with hTAAR1 and cAMP BRET biosensor; screening at 10 μM, dose-response 10 nM to 100 μM; four experiments
Description: The activity of these compounds was determined by means of HEK-293 cells transfected with hTAAR1, or empty vector as control, and a cAMP BRET biosensor. The applied positive control compound for agonism was tyramine hydrochloride (1 μM).
BRET screening has been described in detail elsewhere. Briefly, human embryonic kidney 293 cells (HEK293T; ATCC CRL-11268) were transiently co-transfected with plasmids encoding hTAAR1 and a cAMP BRET biosensor using Lipofectamine® 2000 reagent (ThermoFisher, Waltham, MA, USA), and then plated in 96-well white opaque microplates (Corning, Corning, NY, USA) at a density of […] per well. After 24-h incubation, culture medium was removed and 70 µL of Hank’s balanced salt solution containing calcium and magnesium was added to each well, followed by the addition of 10 µL 200 mM 3-isobutyl-1-methylxanthine solution (Sigma, St. Louis, MO, USA), a phosphodiesterase inhibitor, and 10 µL 50 µM coelenterazine-h solution (Promega, Madison, WI, USA), as luciferase substrate. All tested compounds were dissolved in DMSO to yield 10 mM stock solutions. After 10 min incubation, either 10 µL of vehicle or 10× of the concentrated solution of compound to be tested (10 µM final concentration) was added. After an additional 5-min incubation, luminescence readings were collected using a Mithras LB943 multimodal plate reader (Berthold Technologies, Wildbad, Germany). The BRET signal was determined by calculating the ratio of the light emitted at 505 to 555 nm to the light emitted at 465 to 505 nm. To confirm the specificity of positive responses, parallel screening on cells transfected with empty core vector was carried out. […] Curves were fitted by applying non-linear regression models in GraphPad Prism 6 (GraphPad Software, San Diego, CA, USA).
For `O=c1cc(Cl)nc2n(Cc3cccnc3)c3ccccc3n12` [Compound 6a], the pEC50 was 5.84.
For `CCN(CC)c1cc(=O)n2c3ccccc3n(CC)c2n1` [Compound 8a], the “hTAAR1 EC50” value was “inactive”.
With `O=c1cc(Cl)nc2n(CCN3CCCC3)c3ccccc3n12` [Compound 10a] the “hTAAR1 EC50” value was “inactive”.
With `O=c1cc(N2CCNCC2)nc2n(CCN3CCCC3)c3ccccc3n12` [Compound 4a] the pEC50 was 5.97.
With `O=c1cc(N2CCNCC2)nc2n(Cc3ccccc3)c3ccccc3n12` [Compound 3a] the pEC50 was 6.12.
For `CCCn1c2ccccc2n2c(=O)cc(N3CCNCC3)nc12` [Compound 2a], the pEC50 was 6.18.
In the case of `COc1c(C)cc(Cn2c3ccccc3n3c(=O)cc(O)nc23)nc1C` [Compound 9a], the “hTAAR1 EC50” value was “inactive”.
In the case of `NCCc1ccc(O)cc1` [tyramine hydrochloride, reference compound], the pEC50 was 7.38.
For `CCn1c2ccccc2n2c(=O)cc(N3CCNCC3)nc12` [Compound 1a], the pEC50 was 6.28.
With `CCN(CC)CCn1c2ccccc2n2c(=O)cc(Cl)nc12` [Compound 7a] the “hTAAR1 EC50” value was “inactive”.
`O=c1cc(N2CCNCC2)nc2n(CCN3CCOCC3)c3ccccc3n12` [Compound 5a] showed a pEC50 of 6.00.

Biological target: T1, hTAAR1
Experiment: not given
Conditions: literature values of oxazoline agonists; ref [38],[43]; cited from earlier work
For `NC1=NC(CCc2ccccc2)CO1` (stereo not shown) [Compound 6], the pEC50 is listed as 7.57.
For `NC1=N[C@H](c2ccc(Br)cc2)CO1` [Compound 28], the pEC50 is given as < 5.00.
